In patent US9421237B2, “Tripeptide boronic acid or boronic ester, preparative method and use thereof” (PEKING UNIVERSITY, priority 2009, dated 2016):

What was measured:
[1] = tested on: Bel-7402 human hepatocarcinoma cell; test: Preliminary anti-tumor screening in vitro, SRB method; type: cell-based; set-up: key to Test results: +++: inhibition rates at three doses are greater than 50%; ++: inhibition rates at two doses are greater than 50%; +: inhibition rate at one dose is greater than 50%; conditions: Bel-7402, SRB; for Test results: number of doses with inhibition > 50%; for inhibition at 0.05 µM / inhibition at 0.5 µM / inhibition at 5 µM: Homo sapiens, read-out: Inhibition rate %
Method: (§1) The test methods used in this test example is the routine method for anti-tumor activities test in pharmaceutical area, for example, referring to the following reference: (J. Immunol Method, 1983, 65, 55).
(§2) Test models: A: MTT method (HL-60 human leukemia); B: SRB method (BGC-823 human gastric cancer); C: SRB method (Bel-7402 human hepatocarcinoma); D: SRB method (KB human nasopharyngeal carcinoma).
(§3) The aforesaid tests were carried out with the compounds of Examples 1-26 in the present invention, test results are shown in Tables 2-5.

[2] = tested on: KB human nasopharyngeal carcinoma cell; test: as above; type: cell-based; set-up: key to Test results: +++: inhibition rates at three doses are greater than 50%; ++: inhibition rates at two doses are greater than 50%; +: inhibition rate at one dose is greater than 50%; conditions: for inhibition at 0.05 µM / inhibition at 0.5 µM / inhibition at 5 µM: Homo sapiens, read-out: Inhibition rate %; for Test results: number of doses with inhibition > 50%
Method: as §1, §2, §3

[3] = tested on: BGC-823 human gastric cancer cell; test: as above; type: cell-based; set-up: key to Test results: +++: inhibition rates at three doses are greater than 50%; ++: inhibition rates at two doses are greater than 50%; +: inhibition rate at one dose is greater than 50%; conditions: BGC-823, SRB; for Test results: number of doses with inhibition > 50%; for inhibition at 0.05 µM / inhibition at 0.5 µM / inhibition at 5 µM: Homo sapiens, read-out: Inhibition rate %
Method: as §1, §2, §3

[4] = target: T1, 20S proteasome extracted from rat liver, trypsin-like (TL) activity (Rattus norvegicus, UniProt P40112+Q9JHW0); test: Proteasome inhibition, trypsin-like (TL) activity, fluorescent peptide Z-Ala-Arg-Arg-AMC; type: biochemical; conditions: rat liver 20S proteasome, 37° C., 1 h; read-out: T-L (IC50)
T1 construct: 20S proteasome extracted from rat liver; from tissue; host or cells: rat liver
Method: (§4) The activities of the proteasome were assayed using fluorescent peptides: Suc-leu-leu-Val-Tyr-AMC (Suc represents succinyl, and AMC represents 7-amino-4-methylcoumarin, purchased from SIGMA) for determining chymotryptic-like (CT-L) activity; Z-Ala-Arg-Arg-AMC (Z represents benzyloxycarbonyl, purchased from Calbiochem) for determining trypsin-like (TL) activity; and Z-leu-leu-Glu-βNA (βNA represents β-naphtylamide, purchased from SIGMA) for determining peptidyl-glutamyl-peptide-hydrolyzing (PGPH) enzyme activity.
(§5) Method for the aforesaid activity assays is as follows: 1 μg of 20S proteasome extracted from rat liver was incubated with a 100 μL solution containing various concentrations of compounds, 50 μM fluorescent peptides and 20 mM Tris-HCl at 37° C. for 1 h, respectively. The fluorescence released from AMC and RNA reagents was measured by a spectrofluorimeter Fluostar OPTIMA and BMG Germany at excitation/emission wavelengths of 380/440 nm and 335/410 nm, respectively. 0.1% DMSO was used as a solvent control. Compared with the fluorescence of solvent control, an inhibition rate was calculated. Said assays used anticancer drug bortezomib (leukemia drug), namely PS341 as compound for positive control.

[5] = tested on: HL-60 human leukemia cell; test: Preliminary anti-tumor screening in vitro, MTT method; type: cell-based; set-up: key to Test results: +++: inhibition rates at three doses are greater than 50%; ++: inhibition rates at two doses are greater than 50%; +: inhibition rate at one dose is greater than 50%; conditions: HL-60, MTT; for Test results: number of doses with inhibition > 50%; for inhibition at 0.05 µM / inhibition at 0.5 µM / inhibition at 5 µM: Homo sapiens, read-out: Inhibition rate %
Method: as §1, §2, §3

[6] = target: T2, 20S proteasome extracted from rat liver, peptidyl-glutamyl-peptide-hydrolyzing (PGPH) enzyme activity (Rattus norvegicus, UniProt P28073+Q9JHW0); test: Proteasome inhibition, PGPH activity, fluorescent peptide Z-leu-leu-Glu-βNA; type: biochemical; conditions: rat liver 20S proteasome, 37° C., 1 h
T2 construct: 20S proteasome extracted from rat liver; from tissue; host or cells: rat liver
Method: as §4, §5

[7] = target: T3, 20S proteasome extracted from rat liver, chymotryptic-like (CT-L) activity (Rattus norvegicus, UniProt P18421+P28075); test: Proteasome inhibition, chymotryptic-like (CT-L) activity, fluorescent peptide Suc-leu-leu-Val-Tyr-AMC; type: biochemical; conditions: rat liver 20S proteasome, 37° C., 1 h
T3 construct: 20S proteasome extracted from rat liver; from tissue; host or cells: rat liver
Method: as §4
as §5, with “calculated.” for “calculated. Said assays used anticancer drug bortezomib (leukemia drug), namely PS341 as compound for positive control.”

Row | SMILES | Test results [1] | inhibition at 0.05 µM [1] [%] | inhibition at 0.5 µM [1] [%] | inhibition at 5 µM [1] [%] | inhibition at 0.05 µM [2] [%] | inhibition at 0.5 µM [2] [%] | inhibition at 5 µM [2] [%] | Test results [2] | Test results [3] | inhibition at 0.05 µM [3] [%] | inhibition at 0.5 µM [3] [%] | inhibition at 5 µM [3] [%] | melting point [°C] | IC50 [4] [nM] | Test results [5] | inhibition at 0.05 µM [5] [%] | inhibition at 0.5 µM [5] [%] | inhibition at 5 µM [5] [%] | IC50 [6] [nM] | IC50 [7] [nM]
1 | CC(C)C[C@H](NC(=O)[C@H](Cc1ccccc1)NC(=O)[C@H](Cc1ccc2ccccc2c1)NC(=O)c1cnccn1)B1OC2CC3C[C@@H](C3(C)C)[C@]2(C)O1 (stereo partly drawn) [Compound 5b, Pinanediol N-pyrazineformyl-L-naphthylalanyl-L-phenylalanyl-L-leucine Borate] | ++ | 35.9 | 66.7 | 91 | 40.4 | 95.1 | 95.8 | ++ | +++ | 68.6 | 94.8 | 96.5 | 98 to 100 | > 20 | ++ | 21.1 | 88.1 | 88.1 | > 20 | 0.22 ± 0.106
2 | CC(C)C[C@H](NC(=O)[C@H](Cc1ccc(O)cc1)NC(=O)[C@H](Cc1ccccc1)NC(=O)c1cnccn1)B1OC2CC3C[C@@H](C3(C)C)[C@]2(C)O1 (stereo partly drawn) [Compound 5c, Pinanediol N-pyrazineformyl-L-phenylalanyl-L-tyrosyl-L-leucine Borate] | + | 4.18 | 16.6 | 91.1 | 1.84 | 29.8 | 91.4 | + | ++ | 3.19 | 56 | 96.1 | 119 to 120 | > 20 | + | -10.5 | 1.94 | 99 | 5.39 ± 0.368 | 0.335 ± 0.031
3 | CC(C)C[C@H](NC(=O)[C@H](Cc1ccccc1)NC(=O)[C@H](Cc1ccc(O)cc1)NC(=O)c1cnccn1)B1OC2CC3C[C@@H](C3(C)C)[C@]2(C)O1 (stereo partly drawn) [Compound 5d, Pinanediol N-pyrazineformyl-L-tyrosyl-L-phenylalanyl-L-leucine Borate] | ++ | 5.52 | 52 | 93.1 | 0.83 | 73.2 | 94.8 | ++ | ++ | 23.6 | 93.6 | 97.8 | 90 to 92 | > 20 | + | -11.8 | 35.9 | 88.9 | 4.76 ± 1.31 | 0.295 ± 0.049
4 | CC(C)C[C@H](NC(=O)[C@H](Cc1ccc2ccccc2c1)NC(=O)[C@H](CC(C)C)NC(=O)c1cnccn1)B1OC2CC3C[C@@H](C3(C)C)[C@]2(C)O1 (stereo partly drawn) [Compound 5f, Pinanediol N-pyrazineformyl-L-leucyl-L-naphthylalanyl-L-leucineborate] | ++ | 3.18 | 83.9 | 92.3 | 3.74 | 93.4 | 95.3 | ++ | ++ | 38.3 | 89.2 | 83 | 140 to 142 | > 20 | ++ | -19.9 | 81.9 | 88.6 | 3.91 ± 1.72 | 0.37 ± 0.141
5 | CC(C)C[C@H](NC(=O)[C@H](CC(C)C)NC(=O)[C@H](Cc1ccccc1)NC(=O)c1cnccn1)B(O)O [Compound 6k, N-pyrazineformyl-L-phenylalanyl-L-leucyl-L-leucine Boronic Acid] | – | – | – | – | – | – | – | – | – | – | – | – | 116 to 118 | > 20 | – | – | – | – | 5.66 ± 0.839 | 0.173 ± 0.033
